According to the supplement of paper PMC4862054:

Columns and labels:
Experiment in all cases: normalised response (% of control), CellTiter-Glo; higher = more viable cells (100 = DMSO, 0 = benzethonium chloride kill control)
Conditions in all cases: incubation time: 72 h
[1] = system: BT-474
Summary of the method: (§1)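 Normalised signals at single concentrations make up the values. They come from breast cancer cell lines seeded (20 µl suspension) into 384-well plates with compound at 5 concentrations in 10-fold steps over a compound-specific 10,000-fold range, incubated 72 h, and read for CellTox Green fluorescence then CellTiter-Glo luminescence. Each plate was normalised to 0.1 % DMSO (100) and a positive kill control (0).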

[2] = system: BT-549
Summary of the method: as §1

[3] = system: CAL-120
Summary of the method: as §1

[4] = system: CAL-148
Summary of the method: as §1

[5] = system: CAL-51
Summary of the method: as §1

[6] = system: CAL-85-1
Summary of the method: as §1

[7] = system: DU-4475
Summary of the method: as §1

[8] = system: HCC1143
Summary of the method: as §1

[9] = system: HCC1599
Summary of the method: as §1

[10] = system: HCC1937
Summary of the method: as §1

[11] = system: HDQ-P1
Summary of the method: as §1

[12] = system: Hs578T
Summary of the method: as §1

[13] = system: MCF-10A
Summary of the method: as §1

[14] = system: MDA-MB-231
Summary of the method: as §1

[15] = system: MDA-MB-436
Summary of the method: as §1

[16] = system: MDA-MB-453
Summary of the method: as §1

[17] = system: MDA-MB-468
Summary of the method: as §1

[18] = system: MFM-223
Summary of the method: as §1

[19] = system: SK-BR-3
Summary of the method: as §1

SMILES | normalised response [1] | normalised response [2] | normalised response [3] | normalised response [4] | normalised response [5] | normalised response [6] | normalised response [7] | normalised response [8] | normalised response [9] | normalised response [10] | normalised response [11] | normalised response [12] | normalised response [13] | normalised response [14] | normalised response [15] | normalised response [16] | normalised response [17] | normalised response [18] | normalised response [19]
CO[C@H]1C[C@@H]2CC[C@@H](C)[C@@](O)(O2)C(=O)C(=O)N2CCCC[C@H]2C(=O)O[C@H]([C@H](C)C[C@@H]2CC[C@@H](OCCO)[C@H](OC)C2)CC(=O)[C@H](C)/C=C(\C)[C@@H](O)[C@@H](OC)C(=O)[C@H](C)C[C@H](C)/C=C/C=C/C=C/1C [Everolimus] (0.1 nM) | 92% | 88% | 95.9% | 80.7% | 115% | 90% | 95% | 92% | 90.5% | 88% | 94.4% | 89.5% | 96% | 99.2% | 90.7% | 95.8% | 84.8% | 88.4% | 92%
CCCCCCCCc1ccc(CCC(N)(CO)CO)cc1 [Fingolimod] (1 nM) | 97.7% | 106% | 96.4% | 97.3% | 97.7% | 103% | 101% | 96.8% | 106% | 95.9% | 98.6% | 100% | 103% | 98% | 92.8% | 109% | 107% | 103% | 102%
CCCCCCCCc1ccc(CCC(N)(CO)CO)cc1 [Fingolimod] (10 nM) | 99.7% | 98.1% | 95.5% | 94.5% | 125% | 111% | 103% | 99.5% | 120% | 100% | 104% | 103% | 105% | 99.2% | 94.5% | 105% | 94.2% | 101% | 105%
Cc1ccc(NC(=O)c2ccc(CN3CCN(C)CC3)cc2)cc1Nc1nccc(-c2cccnc2)n1 [Imatinib] (1 nM) | 99.2% | 102% | 101% | 114% | 74.7% | 102% | 107% | 100% | 101% | 94.5% | 102% | 103% | 101% | 105% | 89.9% | 119% | 102% | 108% | 107%
Cc1ccc(NC(=O)c2ccc(CN3CCN(C)CC3)cc2)cc1Nc1nccc(-c2cccnc2)n1 [Imatinib] (10 nM) | 104% | 96.7% | 102% | 113% | 107% | 96% | 109% | 101% | 103% | 99.3% | 106% | 107% | 104% | 99.9% | 103% | 108% | 113% | 109% | 109%
c1ccc([C@H]2CN3CCSC3=N2)cc1 [Levamisole] (1 nM) | 106% | 106% | 98.1% | 113% | 69.9% | 99.9% | 105% | 103% | 106% | 99.4% | 104% | 105% | 107% | 107% | 97.4% | 112% | 112% | 106% | 109%
c1ccc([C@H]2CN3CCSC3=N2)cc1 [Levamisole] (10 nM) | 106% | 99% | 100% | 114% | 78.9% | 95.6% | 103% | 99.5% | 99.5% | 103% | 97% | 105% | 110% | 99.3% | 106% | 117% | 102% | 110% | 95.1%
Nc1nc(OCc2cc(Br)cs2)c2[nH]cnc2n1 [Lomeguatrib] (1 nM) | 100% | 103% | 101% | 92.5% | 118% | 99.9% | 99.2% | 97.6% | 90.9% | 103% | 104% | 99% | 108% | 101% | 110% | 97.6% | 96.2% | 102% | 102%
Nc1nc(OCc2cc(Br)cs2)c2[nH]cnc2n1 [Lomeguatrib] (10 nM) | 104% | 93.5% | 101% | 105% | 69.8% | 94.2% | 104% | 101% | 91.8% | 98.9% | 104% | 105% | 109% | 98.5% | 103% | 97.3% | 101% | 97.4% | 105%
COc1ccccc1S(=O)(=O)Nc1ccc2c(c1)CN(C)C(=O)N2 [PFI-1] (1 nM) | 93.7% | 96.5% | 100% | 107% | 77.9% | 98% | 104% | 94.2% | 80.6% | 99.2% | 96% | 107% | 112% | 103% | 94.8% | 105% | 90.8% | 101% | 104%
COc1ccccc1S(=O)(=O)Nc1ccc2c(c1)CN(C)C(=O)N2 [PFI-1] (10 nM) | 99.7% | 90.1% | 91.8% | 108% | 102% | 94.6% | 109% | 102% | 88.6% | 94.5% | 96% | 106% | 103% | 103% | 97.1% | 97.2% | 95.3% | 109% | 88.4%
C/C(=C\c1csc(C)n1)[C@@H]1C[C@@H]2O[C@]2(C)CCC[C@H](C)[C@H](O)[C@@H](C)C(=O)C(C)(C)[C@@H](O)CC(=O)O1 [Patupilone] (0.1 nM) | 110% | 98.7% | 104% | 113% | 81.4% | 104% | 106% | 97.6% | 108% | 98% | 105% | 99.3% | 102% | 101% | 98% | 101% | 107% | 103% | 98%
NS(=O)(=O)OC[C@@H]1C[C@@H](n2ccc3c(N[C@H]4CCc5ccccc54)ncnc32)C[C@@H]1O [Pevonedistat] (1 nM) | 93.6% | 99.2% | 100% | 106% | 79.2% | 93.9% | 94.7% | 105% | 95.9% | 100% | 100% | 99.7% | 115% | 102% | 99.7% | 110% | 96.7% | 102% | 107%
NS(=O)(=O)OC[C@@H]1C[C@@H](n2ccc3c(N[C@H]4CCc5ccccc54)ncnc32)C[C@@H]1O [Pevonedistat] (10 nM) | 114% | 94% | 97.8% | 109% | 77% | 100% | 109% | 102% | 97.1% | 99.1% | 95.9% | 103% | 112% | 107% | 96.6% | 100% | 97.2% | 102% | 93.5%
CNNCc1ccc(C(=O)NC(C)C)cc1 [Procarbazine] (1 nM) | 102% | 111% | 101% | 104% | 88.6% | 103% | 103% | 112% | 109% | 111% | 104% | 108% | 111% | 104% | 101% | 108% | 104% | 105% | 112%
CNNCc1ccc(C(=O)NC(C)C)cc1 [Procarbazine] (10 nM) | 97.9% | 100% | 102% | 108% | 66.9% | 99% | 107% | 105% | 91.3% | 107% | 109% | 101% | 103% | 106% | 97.2% | 95.8% | 113% | 104% | 109%
CN(C)C[C@@H]1CCn2cc(c3ccccc32)C2=C(C(=O)NC2=O)c2cn(c3ccccc23)CCO1 [Ruboxistaurin] (1 nM) | 95.3% | 96.9% | 90.3% | 97.7% | 129% | 96.7% | 99.8% | 94.4% | 99.2% | 94.6% | 101% | 96.7% | 106% | 97.9% | 105% | 98.9% | 106% | 98.6% | 98.4%
CN(C)C[C@@H]1CCn2cc(c3ccccc32)C2=C(C(=O)NC2=O)c2cn(c3ccccc23)CCO1 [Ruboxistaurin] (10 nM) | 99.1% | 95.5% | 94.3% | 96.1% | 91.4% | 95.6% | 95.3% | 99.9% | 104% | 99.5% | 101% | 98.1% | 98.3% | 94% | 101% | 100% | 103% | 94.6% | 116%
CN1CCN(CCOc2cc(OC3CCOCC3)c3c(Nc4c(Cl)ccc5c4OCO5)ncnc3c2)CC1 [Saracatinib] (1 nM) | 94.4% | 105% | 94.4% | 97.9% | 116% | 105% | 102% | 89.2% | 116% | 95.7% | 94.5% | 97.4% | 96.5% | 94.6% | 103% | 103% | 99.2% | 97.5% | 98.6%
CN1CCN(CCOc2cc(OC3CCOCC3)c3c(Nc4c(Cl)ccc5c4OCO5)ncnc3c2)CC1 [Saracatinib] (10 nM) | 93.5% | 103% | 93.1% | 91.6% | 129% | 104% | 103% | 94.4% | 103% | 97.6% | 118% | 101% | 97.8% | 92.7% | 94.8% | 107% | 93.2% | 96% | 113%
Cn1cncc1[C@@](N)(c1ccc(Cl)cc1)c1ccc2c(c1)c(-c1cccc(Cl)c1)cc(=O)n2C [Tipifarnib] (1 nM) | 89.8% | 102% | 92.2% | 97.3% | 90.2% | 102% | 103% | 94.6% | 93.1% | 93.4% | 93.5% | 96.2% | 94.5% | 99.5% | 88% | 109% | 93.4% | 96.3% | 102%
